Test results taken from ChEMBL document CHEMBL1139598, “A discriminant model constructed by the support vector machine method for HERG potassium channel inhibitors” (Bioorg Med Chem Lett, 2005).

Target: Voltage-gated inwardly rectifying potassium channel KCNH2 (Homo sapiens, UniProt Q12809)
Experiment: Inhibitory concentration against potassium channel HERG

Sequence of Voltage-gated inwardly rectifying potassium channel KCNH2 (Q12809 whole entry): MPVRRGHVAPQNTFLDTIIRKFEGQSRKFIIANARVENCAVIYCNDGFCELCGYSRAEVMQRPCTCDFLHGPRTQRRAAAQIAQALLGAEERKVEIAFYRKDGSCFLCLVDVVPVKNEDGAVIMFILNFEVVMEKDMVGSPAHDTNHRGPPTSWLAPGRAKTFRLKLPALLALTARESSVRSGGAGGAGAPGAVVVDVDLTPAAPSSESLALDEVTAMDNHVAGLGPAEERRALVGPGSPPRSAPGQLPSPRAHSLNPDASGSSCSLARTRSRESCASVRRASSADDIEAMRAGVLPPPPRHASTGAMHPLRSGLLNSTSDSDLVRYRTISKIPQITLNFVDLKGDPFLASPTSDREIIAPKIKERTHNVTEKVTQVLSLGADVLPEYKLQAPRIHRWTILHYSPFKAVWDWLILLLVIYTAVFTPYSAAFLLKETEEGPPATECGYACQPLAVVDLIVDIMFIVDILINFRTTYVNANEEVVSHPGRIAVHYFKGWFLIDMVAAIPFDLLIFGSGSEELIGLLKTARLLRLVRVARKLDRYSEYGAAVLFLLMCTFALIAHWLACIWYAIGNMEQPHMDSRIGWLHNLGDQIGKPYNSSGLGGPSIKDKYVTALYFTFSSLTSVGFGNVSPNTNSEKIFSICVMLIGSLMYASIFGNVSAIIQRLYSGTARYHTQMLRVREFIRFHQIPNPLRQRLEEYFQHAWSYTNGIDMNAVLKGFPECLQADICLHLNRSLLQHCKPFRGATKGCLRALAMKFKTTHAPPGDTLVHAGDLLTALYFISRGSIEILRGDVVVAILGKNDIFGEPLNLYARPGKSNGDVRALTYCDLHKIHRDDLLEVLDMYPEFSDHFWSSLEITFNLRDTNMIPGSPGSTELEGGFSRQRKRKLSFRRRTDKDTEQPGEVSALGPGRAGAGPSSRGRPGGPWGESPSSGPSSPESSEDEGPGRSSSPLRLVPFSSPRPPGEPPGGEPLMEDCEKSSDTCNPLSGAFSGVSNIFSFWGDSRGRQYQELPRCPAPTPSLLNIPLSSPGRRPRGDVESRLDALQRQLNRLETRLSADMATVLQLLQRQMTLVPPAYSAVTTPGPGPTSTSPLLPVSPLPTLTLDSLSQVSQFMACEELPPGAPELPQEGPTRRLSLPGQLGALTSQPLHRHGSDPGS

Work on `COc1cc2nc(N3CCN(C(=O)c4ccco4)CC3)nc(N)c2cc1OC` [PRAZOSIN] yielded an IC50 of 1.58 µM.
In the case of `COc1ccc2c3c1O[C@H]1[C@@H](O)C=C[C@H]4[C@@H](C2)N(C)CC[C@@]341` [CODEINE], the IC50 is reported as 302 µM.
`CCC(=O)C(CC(C)N(C)C)(c1ccccc1)c1ccccc1` (centres undefined) [METHADONE] gave an IC50 of 9.77 µM.
Work on `CC[C@H](OC(C)=O)C(C[C@H](C)N(C)C)(c1ccccc1)c1ccccc1` [LEVOMETHADYL ACETATE] yielded an IC50 of 2.19 µM.
